Our source for the Activity values is ChEMBL document CHEMBL3124884, “Leporizines A-C: epithiodiketopiperazines isolated from an Aspergillus species” (J Nat Prod, 2013).

Data set [1] concerns Cystic fibrosis transmembrane conductance regulator (Homo sapiens), P13569 [F508del]. The data set can be described thus: Activity at CFTR F508del mutant (unknown origin) expressed in Fischer rat thyroid epithelial cells co-expressing YFP-H148Q/I152L assessed as loss of baseline transepithelial resistance at 10 uM after 16 to 20 mins by conductance corrector assay. The class given is cell-based. Particulars: Epithelial cell.
Sequence of Cystic fibrosis transmembrane conductance regulator (Homo sapiens), P13569 [F508del] (P13569 as listed by the source): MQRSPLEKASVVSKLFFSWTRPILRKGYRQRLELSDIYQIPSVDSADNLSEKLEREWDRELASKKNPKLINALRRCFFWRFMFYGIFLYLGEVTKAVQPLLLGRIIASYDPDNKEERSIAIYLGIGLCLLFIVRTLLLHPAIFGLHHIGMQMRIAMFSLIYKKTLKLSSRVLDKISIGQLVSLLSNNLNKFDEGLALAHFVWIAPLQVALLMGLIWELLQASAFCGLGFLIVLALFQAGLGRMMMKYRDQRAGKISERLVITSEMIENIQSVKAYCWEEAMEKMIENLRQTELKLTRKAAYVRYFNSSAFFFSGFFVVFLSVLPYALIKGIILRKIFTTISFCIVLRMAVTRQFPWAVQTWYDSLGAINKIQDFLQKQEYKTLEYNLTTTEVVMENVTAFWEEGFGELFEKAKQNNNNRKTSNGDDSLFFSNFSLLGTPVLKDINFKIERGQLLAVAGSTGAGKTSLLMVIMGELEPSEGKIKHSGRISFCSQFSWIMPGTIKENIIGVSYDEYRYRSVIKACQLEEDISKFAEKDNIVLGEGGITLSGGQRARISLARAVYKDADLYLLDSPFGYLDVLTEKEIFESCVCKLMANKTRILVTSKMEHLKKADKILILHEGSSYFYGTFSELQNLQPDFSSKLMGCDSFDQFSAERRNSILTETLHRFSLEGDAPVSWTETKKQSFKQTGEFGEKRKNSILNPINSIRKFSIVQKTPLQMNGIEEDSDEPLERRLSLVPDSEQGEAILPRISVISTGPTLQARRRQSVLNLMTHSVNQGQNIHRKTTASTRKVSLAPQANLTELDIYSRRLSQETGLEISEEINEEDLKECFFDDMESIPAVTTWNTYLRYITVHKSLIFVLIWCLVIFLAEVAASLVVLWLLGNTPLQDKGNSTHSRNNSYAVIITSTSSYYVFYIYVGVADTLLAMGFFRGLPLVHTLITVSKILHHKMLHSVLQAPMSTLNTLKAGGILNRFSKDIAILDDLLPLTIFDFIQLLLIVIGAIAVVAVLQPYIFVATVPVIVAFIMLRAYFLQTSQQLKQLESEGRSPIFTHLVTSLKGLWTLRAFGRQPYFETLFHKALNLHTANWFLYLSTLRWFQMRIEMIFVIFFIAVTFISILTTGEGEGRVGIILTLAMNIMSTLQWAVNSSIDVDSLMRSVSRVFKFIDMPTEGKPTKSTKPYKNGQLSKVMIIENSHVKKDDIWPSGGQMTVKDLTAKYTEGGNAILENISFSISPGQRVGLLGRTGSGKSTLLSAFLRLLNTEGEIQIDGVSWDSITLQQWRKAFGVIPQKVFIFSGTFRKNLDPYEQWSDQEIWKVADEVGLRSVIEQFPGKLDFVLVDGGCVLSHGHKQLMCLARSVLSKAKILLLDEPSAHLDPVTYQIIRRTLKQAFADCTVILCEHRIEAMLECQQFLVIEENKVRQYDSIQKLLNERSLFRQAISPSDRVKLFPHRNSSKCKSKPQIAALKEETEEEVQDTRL

For data set [2] the test system is unchanged. The data set can be described thus: Activity at CFTR F508del mutant (unknown origin) expressed in Fischer rat thyroid epithelial cells co-expressing YFP-H148Q/I152L assessed as loss of baseline transepithelial resistance at >5 uM after 16 to 20 mins by conductance corrector assay. It counts as cell-based. Conditions: Epithelial cell.
In a further data set the test system is HepG2. The data set can be described thus: Cytotoxicity against human HepG2 cells. It counts as cell-based.
Data set [3] concerns Cystic fibrosis transmembrane conductance regulator (Homo sapiens), P13569 [F508del]. The data set can be described thus: Activity at CFTR F508del mutant (unknown origin) expressed in Fischer rat thyroid epithelial cells co-expressing YFP-H148Q/I152L assessed as forskolin/PG-01-induced increase in conductance reversible effect at <= 5 uM after 16 to 20 hrs by conductance corrector assay. Conditions: Epithelial cell.

The test system is the same in data set [4]. The data set can be described thus: Activity at CFTR F508del mutant (unknown origin) expressed in Fischer rat thyroid epithelial cells co-expressing YFP-H148Q/I152L assessed as forskolin/PG-01-induced increase in conductance reversible effect at 10 to 20 uM after 16 to 20 mins by conductance corrector assay in presence of CFInh-172. It counts as cell-based. Particulars: Epithelial cell.

Data set [5] has the same test system. The data set can be described thus: Activity at CFTR F508del mutant (unknown origin) expressed in Fischer rat thyroid epithelial cells co-expressing YFP-H148Q/I152L assessed as forskolin/PG-01-induced increase in conductance reversible effect at >5 uM after 16 to 20 mins by conductance corrector assay. It counts as cell-based. Conditions: Epithelial cell.
The test system is the same in data set [6]. The data set can be described thus: Activity at CFTR F508del mutant (unknown origin) expressed in Fischer rat thyroid epithelial cells co-expressing YFP-H148Q/I152L assessed as forskolin/PG-01-induced increase in conductance reversible effect at 2.5 to 20 uM after 16 to 20 mins by conductance corrector assay. Particulars: Epithelial cell. The class given is cell-based.

Data set [7] shares this test system. The data set can be described thus: Activity at CFTR F508del mutant (unknown origin) expressed in Fischer rat thyroid epithelial cells co-expressing YFP-H148Q/I152L assessed as loss of baseline transepithelial resistance at 2.5 to 20 uM after 16 to 20 mins by conductance corrector assay. It counts as cell-based. Conditions: Epithelial cell.

The source made the active and inactive calls. The calls are words filed in the database; no cut-off is given here.

On to `COc1ccc(Cl)cc1Nc1nc(-c2sc(NC(=O)C(C)(C)C)nc2C)cs1`, for which the outcome in data set [1] was Active.

On to `C[C@@H]1OC2=C(C(=O)C3(O)C(C2)N2C(=O)[C@@]45SSS[C@@]2(C(=O)N4[C@H]2Nc4ccccc4C2(O)[C@H]5O)[C@@H]3O)C1(C)C` (some centres undefined), for which the result in data set [2], in data set [4] and in data set [5] was Active. Besides, in the data set with HepG2, the Activity result is “Toxic”. Moreover, the outcome in data set [3] was inactive.

As for `CS[C@]12C(=O)N3[C@H]4Nc5ccccc5C4(O)[C@@H](O)[C@@]3(SC)C(=O)N1C1CC3=C(C(=O)C1(O)[C@H]2O)C(C)(C)[C@H](C)O3` (some centres undefined), the outcome in data set [6] and in data set [7] was inactive. Also, the Activity entry with HepG2 is given as “Non-toxic”.

As for `C[C@@H]1OC2=C(C(=O)C3(O)C(C2)N2C(=O)[C@@]45SS[C@@]2(C(=O)N4[C@H]2Nc4ccccc4C2(O)[C@H]5O)[C@@H]3O)C1(C)C` (some centres undefined), the outcome in data set [2], in data set [4] and in data set [5] was Active. In addition, the Activity entry in the data set on HepG2 is “Toxic”. Moreover, the result in data set [3] was inactive.
